{"source": "patent US20240180950A1", "about": "“Prevention and Treatment of Post-Infection Neurological Disorders and Clotting/Thrombotic Disorders” (priority 2021, published 2024)", "origin": "cited, not measured here", "settings": "250 mg, 500 mg, 1000 mg, 2000 mg, and 4000 mg per day, per person, in 2 or 3 divided doses", "data": [{"compound": "Nc1nc2c(ncn2[C@@H]2O[C@H](COP(=O)(O)O)[C@@H](O)[C@H]2O)c(=O)[nH]1", "note": "[guanosine monophosphate]", "values": [{"measurement": "safety of daily human doses of guanosine monophosphate", "result": "safe"}]}]}
